Where “and” joins values, the source holds several entries; their conditions need not be identical. Equal values may be shown once. Read-outs that look alike come from different tables or passages of the source. Marks after values point to notes of the source that are not given here.
Tests used:
[1] = test system: rat tracheal smooth muscle cells (TSMCs); experiment: MTT assay on rat tracheal smooth muscle cells; format: cell-based, Wistar rat; details: for cytotoxicity on rat TSMCs: 0.001 to 100 μM, 24 hours, MTT
Experimental: Tracheal tissue of Wistar rat (200 g to 250 g) was aseptically obtained and connective tissue around the tracheal tissue was removed. […] Supernatant was discarded after centrifugation, and cells were resuspended in 10 ml fresh medium B and cultured on 10 cm cull culture plate to proceed the subsequent experiments. The third to sixth generations of cells were used in the following experiments. Cell concentration was adjusted to 10^4 cells/ml by using a cell counter. Ten thousand cells (1 ml) were inoculated in 24-well culture plate for 24 hours, and cells were attached thereon. Medium B then was added to culture cells for another 24 hours. Subsequently, different concentrations of drugs were added into wells for continuously incubating for 24 hours in low-oxygen incubator. MTT (methylhiazolyldiphenyl-tetrazolium bromide, 100 μl, 5 mg/ml) was added into the wells for darkly reacted for 3 hours at 37° C. Isopropanol of 500 μl was added to solve the […], formazan, after MTT was withdrawn. After 10 minutes, the supernatant ([…]) was transferred to the new 96-well culture plate to determine the absorbance at 540 nm (OD540) and 630 nm (OD630). The effect of drug on cellular growth was evaluated by the value of “OD540-OD630”.

[2] = Pharmacokinetic analysis of MSC in male ICR mice (plasma MSC by LC-MS/MS); format: in vivo; details: for Maximum mean plasma concentration of MSC / Minimum mean plasma concentration of MSC / Mean plasma concentration of MSC: ICR mice; for Maximum mean plasma concentration of MSC: 2 min; for Mean plasma concentration of MSC: 2 hours
[3] = for Maximum mean plasma concentration of MSC / Minimum mean plasma concentration of MSC: CD-1 (Crl) mice; for Maximum mean plasma concentration of MSC: 2 min
Experimental: These pharmaceutical solutions were vortexed and sonicated to be fully dissolved to accomplish the preparation of drugs for i.v. administration.
Male Sprague-Dawley (SD) rats (body weight: 250˜292 g) and male CD-1 (Crl) mice (body weight: 23˜25 g) were purchased from BioLasco Taiwan Co., Ltd., Taiwan, and male ICR mice (body weight: 23˜25 g) were provided from MDS Pharma Services (King of Prussia, Pa., U.S.A.). […] Rats and mice were fasted at least 16 hours prior to oral administration.
Regarding CD-1 (Crl) mice and ICR mice, blood samples were collected by cardiac puncture post i.v. administration for 0, 2, 5, 15, 30 minutes, 1, 1.5, 2, 4, 6, 9, 24 and 27 hours (a total of 13 sampling time points). Blood samples of mice were collected by cardiac puncture before oral administration. Blood samples of three mice were collected at each time point by cardiac puncture post oral administration for 15, 30 minutes, 1, 1.5, 2, 4, 6, 9, 24 and 27 hours (a total of 11 sampling time points). Blood sample (0.5˜0.7 ml) collected by cardiac puncture was placed in a 1.5-ml Eppendorf microcentrifuge tube containing 5 μl of anti-coagulant heparin sodium (5,000 I.U./ml), followed by centrifugation at 12,000 rpm at 4° C. for 10 minutes. The plasma fraction was transferred to a clean microcentrifuge tube and stored at −70° C.
Plasma sample was mixed with acetonitrile and centrifuged, and the supernatant was injected onto an LC column. The pharmacokinetic parameters were calculated from mean plasma concentration by WinNonlin Standard program (version 3.1, Pharsight Corp.).

[4] = Pharmacokinetic analysis of Pulmodil in male SD rats (plasma MSC by LC-MS/MS); format: in vivo, male Sprague-Dawley (SD) rats; details: for Maximum mean plasma concentration of MSC / Minimum mean plasma concentration of MSC / Mean plasma concentration of MSC: SD rats
[5] = Mean plasma concentration of MSC after different dosage forms of Pulmodil in SD rats (3 groups, 8 rats per group); format: in vivo
Source text: First, SD rats were divided into 3 groups, 8 rats per group.

[6] = MSC single i.v. 2.0 mg/kg, male ICR mice
[7] = MSC single oral 20.0 mg/kg, male ICR mice
[8] = Pulmodil-1 single i.v. 2.0 mg/kg, male CD-1 (Crl) mice
[9] = Pulmodil-1 single oral 20.0 mg/kg, male CD-1 (Crl) mice
[10] = Pulmodil single i.v. 2.0 mg/kg, male SD rats
[11] = Pulmodil single oral 18.3 mg/kg, male SD rats
[12] = Pulmodil single sublingual 3.4 mg/kg, male SD rats

Cn1c(=O)c2c(ncn2CCN2CCN(c3ccccc3Cl)CC2)n(C)c1=O [MSC]
cytotoxicity on rat TSMCs [1]: did not show cytotoxicity | Maximum mean plasma concentration of MSC ([2]; MSC i.v. 2.0 mg/kg, 2 mg/kg): 447.76 ± 50.30 ng/mL and 447.76 ng/mL | Minimum mean plasma concentration of MSC ([2]; MSC i.v. 2.0 mg/kg, 24 hr): 0.39 ng/mL | Mean plasma concentration of MSC ([2]; MSC i.v.): 4.82 ± 1.98 ng/mL | Maximum mean plasma concentration of MSC ([2]; MSC oral 20.0 mg/kg, 20 mg/kg): 205.92 ± 56.94 ng/mL and 205.92 ng/mL | Minimum mean plasma concentration of MSC ([2]; MSC oral 20.0 mg/kg, 9 hr, 20 mg/kg): 3.74 ± 1.62 ng/mL and 3.74 ng/mL | Mean plasma concentration of MSC ([2]; MSC oral): 94.26 ± 40.36 ng/mL | AUC(0-inf) [2, 6]: 236.6 ng·h/mL | C(0) [2, 6]: 515.8 ng/mL | Cl [2, 6]: 140.9 mL/min/kg | MRT [2, 6]: 120 min | Vss [2, 6]: 17.2 L/kg | Vz [2, 6]: 79.0 L/kg | t1/2 ([2]; MSC single i.v. 2.0 mg/kg, male ICR mice, determined between 9 and 24 hours): 6.5** hr | AUC(0-inf) [2, 7]: 462.5 ng·h/mL | Bioavailability [2, 7]: 19.5% | MAT (MRTPO − MRTIV) [2, 7]: 48 min | MRT [2, 7]: 168 min | Tmax [2, 7]: 15 min | Cmax ([2]; MSC single oral 20.0 mg/kg, male ICR mice, 20 mg/kg): 205.9 ng/mL | t1/2 ([2]; MSC single oral 20.0 mg/kg, male ICR mice, determined between 4 to 9 hours): 1.2** hr

Cn1c(=O)c2c(ncn2CCN2CCN(c3ccccc3Cl)CC2)n(C)c1=O.O=C(O)CC(O)(CC(=O)O)C(=O)O [Pulmodil-1, 7-[2-[4-(2-chlorobenzene)piperazinyl]ethyl]-1,3-dimethylxanthine.citric acid]
Maximum mean plasma concentration of MSC ([3]; Pulmodil-1 i.v. 2.0 mg/kg, 2 mg/kg): 1425.4 ± 138.2 ng/mL and 1425.4 ng/mL | Minimum mean plasma concentration of MSC ([3]; Pulmodil-1 i.v. 2.0 mg/kg, 2 hr, 2 mg/kg): 2.7 ± 2.2 ng/mL and 2.7 ng/mL | Maximum mean plasma concentration of MSC ([3]; Pulmodil-1 oral 20.0 mg/kg, 20 mg/kg): 683.2 ± 187.5 ng/mL and 683.2 ng/mL | Minimum mean plasma concentration of MSC ([3]; Pulmodil-1 oral 20.0 mg/kg, 4 hr): 11.9 ng/mL | AUC(0-inf) [3, 8]: 371.3 ng·h/mL | Cl [3, 8]: 90 mL/min/kg | Cmax [3, 8]: 1785.0 ng/mL | Vss [3, 8]: 1.4 L/kg | Vz [3, 8]: 2.0 L/kg | t1/2 ([3]; Pulmodil-1 single i.v. 2.0 mg/kg, male CD-1 (Crl) mice, determined between 0.5 and 2 hours): 0.3 h | AUC(0-inf) [3, 9]: 379.3 ng·h/mL | Cmax [3, 9]: 683.0 ng/mL | MAT (MRTPO − MRTIV) [3, 9]: 42 min | Tmax [3, 9]: 18 min | Bioavailability ([3]; Pulmodil-1 single oral 20.0 mg/kg, male CD-1 (Crl) mice, 20 mg/kg): 10% and 10.2% | t1/2 ([3]; Pulmodil-1 single oral 20.0 mg/kg, male CD-1 (Crl) mice, determined between 0.5 to 4 hours): 1.0* hr | cytotoxicity on rat TSMCs [1]: did not show cytotoxicity

Cl.Cn1c(=O)c2c(ncn2CCN2CCN(c3ccccc3Cl)CC2)n(C)c1=O [Pulmodil, 7-[2-[4-(2-chlorobenzene)piperazinyl]ethyl]-1,3-dimethylxanthine.HCl]
Maximum mean plasma concentration of MSC ([4]; Pulmodil i.v. 2.0 mg/kg, 2 min, 2 mg/kg): 1263.1 ± 181.4 ng/mL and 1263.1 ng/mL | Minimum mean plasma concentration of MSC ([4]; Pulmodil i.v. 2.0 mg/kg, 6 hr, 2 mg/kg): 0.7 ± 0.3 ng/mL and 0.7 ng/mL | Maximum mean plasma concentration of MSC ([4]; Pulmodil oral 20 mg/kg, 5 min): 1294.1 ng/mL | Minimum mean plasma concentration of MSC ([4]; Pulmodil oral 20 mg/kg, 9 hr): 5.9 ng/mL | Mean plasma concentration of MSC ([4]; Pulmodil oral 20 mg/kg, 24 hr (text: 24- and 27-hour), 20 mg/kg): 0.2 ± 0.1 ng/mL and 0.2 ng/mL | Mean plasma concentration of MSC ([4]; Pulmodil oral 20 mg/kg, within 2 minutes): 879.7 ng/mL | AUC(0-inf) [4, 10]: 608 ng·h/mL | Cl [4, 10]: 51.7 mL/min/kg | MRT [4, 10]: 36 min | Vss [4, 10]: 1.8 L/kg | Vz [4, 10]: 3.4 L/kg | t1/2 [4, 10]: 48 min | AUC(0-inf) [4, 11]: 1142 ng·h/mL | Cmax [4, 11]: 1390 ng/mL | MAT (MRTPO − MRTIV) [4, 11]: 66 min | MRT [4, 11]: 102 min | Tmax [4, 11]: 6 min | t1/2 [4, 11]: 198 min | AUC(0-inf) [4, 12]: 42 ng·h/mL | Bioavailability [4, 12]: 3.7% | Cmax [4, 12]: 27 ng/mL | MAT (MRTSL − MRTIV) [4, 12]: 108 min | MRT [4, 12]: 144 min | Tmax [4, 12]: 6 min | t1/2 [4, 12]: 138 min | Maximum mean plasma concentration of MSC ([4]; Pulmodil sublingual 3.6 mg/kg, 10 min): 25.9 ± 5.5 ng/mL and 25.9 ng/mL | Minimum mean plasma concentration of MSC ([4]; Pulmodil sublingual 3.6 mg/kg, 9 hr): 0.7 ng/mL | Mean plasma concentration of MSC ([4]; Pulmodil sublingual 3.6 mg/kg, within 2 minutes): 22.5 ± 4.1 ng/mL | Bioavailability ([4]; route not stated, given as fraction): 0.2 | Cmax [3, 8]: 1785.0 ng/mL | cytotoxicity on rat TSMCs [1]: did not show cytotoxicity | cell survival rate ([1]; high concentrations (10 and 100 μM), rat TSMCs): ~100% | highest mean plasma concentration of MSC ([5]; Pulmodil i.v. 2.0 mg/kg, 2 minutes): 1263.12 ± 181.44 ng/mL | highest mean plasma concentration of MSC ([5]; Pulmodil i.v. 2.0 mg/kg, 5 minutes): 1171.077 ± 222.16 ng/mL | highest mean plasma concentration of MSC ([5]; Pulmodil oral 20 mg/kg, 5 minutes): 954.32 ± 332.81 ng/mL | highest mean plasma concentration of MSC ([5]; Pulmodil oral 20 mg/kg, 10 minutes): 806.85 ± 160.05 ng/mL | highest mean plasma concentration of MSC ([5]; Pulmodil sublingual 3.6 mg/kg, 2 minutes): 22.48 ± 4.09 ng/mL | highest mean plasma concentration of MSC ([5]; Pulmodil sublingual 3.6 mg/kg, 30 minutes): 18.24 ± 5.70 ng/mL

Source: US20100280040A1 (KAOHSIUNG MEDICAL UNIVERSITY, priority 2009, published 2010)
